Patent publication US20150038541A1, “COMPOSITION AND METHODS FOR CELL MODULATION” (APOSIGNAL BIOSCIENCE LLC, priority 2012, published 2015)

Tested on: breast T47D cells
Assay: Cell proliferation (growth rate, crystal violet) of breast T47D cells with AS-7 by itself
Format: cell-based, human
Conditions: 10 μM AS-7, vehicle doubling time 1.4 days
Description: To examine the effect of AS-7 on the growth of several different cell lines, AS-7 at 10 μM was added to the culture medium the day after seeding the cells. The following cell lines were used to determine the effect of AS-7 on the rate of proliferation: HeLa, melanoma A2620, ovarian A2780, and breast T47D. All cell line were grown in culture medium (RPMI 1640 for the breast cancer cells and Dulbecco's modified Eagle's medium for the other cell lines) containing 10% heat inactivated fetal bovine serum without antibiotics (penicillin and streptomycin). […] The doubling times in HeLa, melanoma, ovarian and breast cancer derived cells were 0.9, 2.5, 1.0, and 1.4 days, respectively. AS-7 increased the doubling times of the HeLa, melanoma, ovarian, and breast cancer derived cells by 1.3, 1.3, 1.6, and 3.1 fold, respectively (FIGS. 11 through 14).

In the case of N#Cc1cccc(C(C(=O)NCC(c2ccccc2)c2ccccc2)N(CCc2c[nH]cn2)C(=O)c2ccccc2C(=O)c2ccccc2)c1 (stereo not shown) [AS-7], the “increase of doubling time” value is reported as 3.1 fold.
